Patent US6040341A, “Compounds and their compositions having anti-inflammatory and anti-thrombotic activities” (Nicox S.A., priority 1995, dated 2000)
Read-outs that look alike come from different tables or passages of the source.

Experiments:
[1] = test system: human piastrines stimulated by arachidonic acid; assay: Anti-aggregating piastrinic activity, aggregation induced by arachidonic acid; assay type: cell-based; conditions: Platelet; for activity at 100 µM / activity at 10 µM: read-out: Piastrinic aggregation (%) induced by arachidonic acid
Method: (§1) For the in vitro tests (piastrinic tests) the nitroderivatives, 1 mmol, were dissolved in dimethylsulfoxide and then diluted according to the concentrations listed in the Table.
(§2) Aspirin ASA 30 mmols was dissolved in a mixture of etanol:H2 O in the range 1:10 by volume and then diluted according to the concentrations listed in the Table.

[2] = test system: human piastrines stimulated by trombin; assay: Anti-aggregating piastrinic activity, aggregation induced by trombin; assay type: cell-based; conditions: for activity at 1000 µM / activity at 100 µM / activity at 10 µM: read-out: Piastrinic aggregation (%) induced by trombin
Method: as §1, §2

cyclooxygenases = biological target: T1, cyclooxygenases (Homo sapiens, UniProt P23219); assay: COX inhibition in human piastrines (Tromboxan B2 level); assay type: cell-based; conditions: for COX inhibition (%): 5.10^-5 M; for COX inhibition (%) / inhibition at 100 µM / inhibition at 10 µM: % referred to controls (adding of the aggregating substance only); for inhibition at 100 µM: 10^-4 M; for inhibition at 10 µM: 10^-5 M
T1 construct: endogenous in cells; host or cells: human platelets
Method: as §1, §2
The inhibition activity of the cyclooxygenases was determined in human piastrines according to the method described by Patrono et al (Thrombosis Res. 17, 317, 1980). The enzimatic activity was expressed as level of Tromboxan B2 (TX B2) and measured in ng/ml.

[3] = test system: intestinal gastric mucose; assay: Gastric tolerability, oral, in the rat; assay type: in vivo; conditions: for Gastric tolerance: in vivo; for Gastric damage: oral
Method: In the in vivo studies (for example toxicity) the products obtained above were administered in form of suspension in carboxymethylcellulose 1-2% by weight.
The gastric tolerability was evaluated through oral subministration in the rat measuring the seriousness of the gastropathie induced according to the criterium indicated by Wallace et al. (Am. J. Physiol. 259, G642, 1990).

piastrinic adhesion = assay: Piastrinic adhesion; assay type: cell-based; conditions: from 10^-5 to 10^-4 M
Method: as §1, §2
The inhibition activity of the piastrinic adhesion was evaluated according to the method described by Bellavite et al. (Anal. Biochem. 216, 444, 1994).

[4] = test system: calcium concentration inside the piastrine; assay: Intracellular piastrinic calcium; assay type: cell-based; conditions: from 10^-5 to 10^-4 M
Method: as §1, §2
The effect of the compounds of the invention or comparison compounds on the calcium concentration inside the piastrine was measured according to the method of Pollock et al. (Biochem. J. 235, 869, 1986).

[5] = 10^-4 M, % referred to controls (adding of the aggregating substance only)
[6] = 10^-5 M, % referred to controls (adding of the aggregating substance only)
[7] = Homo sapiens, Platelet, 10^-4 M, % referred to controls (adding of the aggregating substance only)

T1 sequence (P23219 24-599): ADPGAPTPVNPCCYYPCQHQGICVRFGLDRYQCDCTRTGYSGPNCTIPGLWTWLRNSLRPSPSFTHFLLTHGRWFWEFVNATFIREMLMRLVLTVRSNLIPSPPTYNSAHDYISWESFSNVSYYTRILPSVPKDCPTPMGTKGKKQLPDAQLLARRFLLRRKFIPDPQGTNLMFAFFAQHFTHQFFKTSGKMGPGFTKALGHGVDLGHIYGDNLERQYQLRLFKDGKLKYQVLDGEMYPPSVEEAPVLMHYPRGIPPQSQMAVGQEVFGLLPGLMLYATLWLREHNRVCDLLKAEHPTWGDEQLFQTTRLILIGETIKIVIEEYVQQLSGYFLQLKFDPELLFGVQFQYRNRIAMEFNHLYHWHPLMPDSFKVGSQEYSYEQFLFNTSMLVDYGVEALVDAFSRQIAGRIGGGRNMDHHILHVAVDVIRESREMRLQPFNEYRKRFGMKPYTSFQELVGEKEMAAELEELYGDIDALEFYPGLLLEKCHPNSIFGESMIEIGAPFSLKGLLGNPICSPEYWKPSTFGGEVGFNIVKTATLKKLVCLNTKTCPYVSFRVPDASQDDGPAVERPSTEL

| Compound | activity at 100 µM [1, 5] | activity at 10 µM [1, 6] | activity at 100 µM [2, 7] | COX inhibition (%) (cyclooxygenases) | inhibition at 100 µM (cyclooxygenases) | inhibition at 10 µM (cyclooxygenases) | Gastric tolerance [3] | Gastric damage ([3]; 250-500 mg/Kg) | further results |
| --- | --- | --- | --- | --- | --- | --- | --- | --- | --- |
| CC(=O)Oc1ccccc1C(=O)OCCCCO[N+](=O)[O-] [ANBE, 2-acetoxy-benzoate of (4-nitroxy)butyl] | 50% | 100% | 60% | 70% | 30% | 80% | very well tolerated in the gastric mucose | did not produce relevant damages | activity at 1000 µM ([1]; 10^-3 M, % referred to controls (adding of the aggregating substance only)): 20%; activity at 1000 µM ([2]; Homo sapiens, Platelet, 10^-3 M, % referred to controls (adding of the aggregating substance only)): 50% |
| CC(=O)Oc1ccccc1C(=O)Oc1cccc(CO[N+](=O)[O-])c1 [ANMPE, 2-acetoxy-benzoate of (3-nitroxymetyhyl)fenyl] | 0% | 60% | 0% | 2% |  | 5% | very well tolerated in the gastric mucose | did not produce relevant damages | activity at 50 µM ([1]; 5.10^-5 M, % referred to controls (adding of the aggregating substance only)): 10%; activity at 50 µM ([2]; Homo sapiens, Platelet, 5.10^-5 M, % referred to controls (adding of the aggregating substance only)): 40%; activity at 10 µM ([2]; Homo sapiens, Platelet, 10^-5 M, % referred to controls (adding of the aggregating substance only)): 70%; Inhibition of piastrinic aggregation induced by trombin, comparison in words ([2]; versus ASA and ANBE): values surprisingly higher both with respect to ANBE and ASA; COX inhibition, comparison in words (cyclooxygenases; versus ASA and ANBE): activities similar to ASA, but well higher with respect to ANBE; Inhibition of piastrinic adhesion (piastrinic adhesion): efficient in inhibiting significantly and in a dose-dependent way; Inhibition of intracellular piastrinic calcium [4]: efficient in inhibiting significantly and in a dose-dependent way |
| CC(=O)Oc1ccccc1C(=O)O [ASA, acetylsalicilic acid] |  |  |  | 3% | 1% |  |  |  | activity at 10 µM [1]: 40%; activity at 100 µM [1]: 0%; activity at 10 µM ([2]; Homo sapiens, Platelet): 100%; activity at 100 µM ([2]; Homo sapiens, Platelet): 100%; activity at 1000 µM ([2]; Homo sapiens, Platelet): 80%; Gastric damage ([3]; 50-100 mg/Kg): severe damages |
